ChEMBL document CHEMBL4251553, “Synthesis, anticancer evaluation and pharmacokinetic study of novel 10-O-phenyl ethers of dihydroartemisinin” (Eur J Med Chem, 2017)
Calls of active or inactive are those of the source. No cut-off for these calls is given here.

Legend:
[1] = Plasma concentration in Sprague-Dawley rat at 10 mg/kg, iv administered as single dose measured at 0.083 hrs post dosing by LC-MS/MS analysis; type: ADME, organism-based
NCI/ADR-RES [2] = assay: Cell cycle arrest in human MCF7/ADR cells assessed as accumulation at sub-G1 phase at 0.5 uM after 24 hrs by propidium iodide staining based flow cytometry (reference value: 1.08%); type: functional
[3] = Apparent clearance in Sprague-Dawley rat at 10 mg/kg, iv administered as single dose by LC-MS/MS analysis; type: ADME, organism-based; settings: in vivo, read-out: CL(app) (converted)
[4] = Cmax in Sprague-Dawley rat at 10 mg/kg, iv administered as single dose by LC-MS/MS analysis; type: ADME, organism-based; parameters: dose 10 mg/kg, route intravenous; settings: in vivo
NCI/ADR-RES [5] = assay: Cell cycle arrest in human MCF7/ADR cells assessed as accumulation at S-phase at 1 uM after 48 hrs by propidium iodide staining based flow cytometry (reference value: 29.45%); type: functional
[6] = Plasma concentration in Sprague-Dawley rat at 10 mg/kg, iv administered as single dose measured at 0.5 hrs post dosing by LC-MS/MS analysis; type: ADME, organism-based
MCF7 [7] = assay: Cell cycle arrest in human MCF7 cells assessed as accumulation at sub-G1 phase at 0.5 uM after 48 hrs by propidium iodide staining based flow cytometry (reference value: 0.18%); type: functional
MCF7 [8] = assay: Cell cycle arrest in human MCF7 cells assessed as accumulation at S-phase at 0.5 uM after 24 hrs by propidium iodide staining based flow cytometry (reference value: 18.24%); type: functional
MCF7 [9] = assay: Cell cycle arrest in human MCF7 cells assessed as accumulation at S-phase at 1 uM after 24 hrs by propidium iodide staining based flow cytometry (reference value: 18.24%); type: functional
NCI/ADR-RES [10] = assay: Cell cycle arrest in human MCF7/ADR cells assessed as accumulation at S-phase at 1 uM after 24 hrs by propidium iodide staining based flow cytometry (reference value: 25.87%); type: functional
MCF7 [11] = assay: Antiproliferative activity against human MCF7 cells after 96 hrs by MTT assay; type: functional; settings: MCF7, 96 h
MCF7 [12] = assay: Cell cycle arrest in human MCF7 cells assessed as accumulation at G0/G1 phase at 1 uM after 24 hrs by propidium iodide staining based flow cytometry (reference value: 57.83%); type: functional
[13] = Plasma concentration in Sprague-Dawley rat at 10 mg/kg, iv administered as single dose measured at 24 hrs post dosing by LC-MS/MS analysis; type: ADME, organism-based
MCF7 [14] = assay: Cell cycle arrest in human MCF7 cells assessed as accumulation at G2/M phase at 0.5 uM after 24 hrs by propidium iodide staining based flow cytometry (reference value: 22.57%); type: functional
NCI/ADR-RES [15] = assay: Cell cycle arrest in human MCF7/ADR cells assessed as accumulation at G0/G1 phase at 0.5 uM after 48 hrs by propidium iodide staining based flow cytometry (reference value: 38.76%); type: functional
MDA-MB-231 = assay: Antiproliferative activity against human MDA-MB-231 cells after 96 hrs by MTT assay; type: functional; settings: MDA-MB-231, 96 h
[16] = Apparent terminal half life in Sprague-Dawley rat at 10 mg/kg, iv administered as single dose by LC-MS/MS analysis; type: ADME, organism-based; settings: in vivo, read-out: betat1/2(app) (converted)
MCF7 [17] = assay: Cell cycle arrest in human MCF7 cells assessed as accumulation at S-phase at 1 uM after 48 hrs by propidium iodide staining based flow cytometry (reference value: 18.39%); type: functional
NCI/ADR-RES [18] = assay: Downregulation of Cyclin-D1 protein expression in human MCF7/ADR cells at 0.05 to 0.1 uM after 24 to 48 hrs by Western blot analysis; type: functional, cell-based
NCI/ADR-RES [19] = assay: Cell cycle arrest in human MCF7/ADR cells assessed as accumulation at G0/G1 phase at 0.5 uM after 24 hrs by propidium iodide staining based flow cytometry (reference value: 45.98%); type: functional
[20] = Plasma concentration in Sprague-Dawley rat at 10 mg/kg, iv administered as single dose measured at 2 hrs post dosing by LC-MS/MS analysis; type: ADME, organism-based
NCI/ADR-RES [21] = assay: Cell cycle arrest in human MCF7/ADR cells assessed as accumulation at sub-G1 phase at 1 uM after 24 hrs by propidium iodide staining based flow cytometry (reference value: 1.08%); type: functional
[22] = Plasma concentration in Sprague-Dawley rat at 10 mg/kg, iv administered as single dose measured at 0.25 hrs post dosing by LC-MS/MS analysis; type: ADME, organism-based
[23] = Apparent volume of distribution in Sprague-Dawley rat at 10 mg/kg, iv administered as single dose by LC-MS/MS analysis; type: ADME, organism-based; settings: in vivo, read-out: Vz
NCI/ADR-RES [24] = assay: Cell cycle arrest in human MCF7/ADR cells assessed as accumulation at G2/M phase at 1 uM after 24 hrs by propidium iodide staining based flow cytometry (reference value: 27.75%); type: functional
NCI/ADR-RES [25] = assay: Cell cycle arrest in human MCF7/ADR cells assessed as accumulation at G2/M phase at 0.5 uM after 48 hrs by propidium iodide staining based flow cytometry (reference value: 31.94%); type: functional
MCF7 [26] = assay: Cell cycle arrest in human MCF7 cells assessed as accumulation at G0/G1 phase at 1 uM after 48 hrs by propidium iodide staining based flow cytometry (reference value: 57.21%); type: functional
[27] = Plasma concentration in Sprague-Dawley rat at 10 mg/kg, iv administered as single dose measured at 4 hrs post dosing by LC-MS/MS analysis; type: ADME, organism-based
NCI/ADR-RES [28] = assay: Antiproliferative activity against human MCF7/ADR cells after 96 hrs by MTT assay; type: functional
NCI/ADR-RES [29] = assay: Cell cycle arrest in human MCF7/ADR cells assessed as accumulation at S-phase at 0.5 uM after 24 hrs by propidium iodide staining based flow cytometry (reference value: 25.87%); type: functional
NCI/ADR-RES [30] = assay: Cell cycle arrest in human MCF7/ADR cells assessed as accumulation at G0/G1 phase at 1 uM after 24 hrs by propidium iodide staining based flow cytometry (reference value: 45.98%); type: functional
[31] = Plasma concentration in Sprague-Dawley rat at 10 mg/kg, iv administered as single dose measured at 8 hrs post dosing by LC-MS/MS analysis; type: ADME, organism-based
MCF7 [32] = assay: Cell cycle arrest in human MCF7 cells assessed as accumulation at G0/G1 phase at 0.5 uM after 48 hrs by propidium iodide staining based flow cytometry (reference value: 57.21%); type: functional
NCI/ADR-RES [33] = assay: Cell cycle arrest in human MCF7/ADR cells assessed as accumulation at S-phase at 0.5 uM after 48 hrs by propidium iodide staining based flow cytometry (reference value: 29.45%); type: functional
[34] = Selectivity ratio of GI50 for human MCF7 cells to GI50 for human MCF7/ADR cells; type: functional
MCF7 [35] = assay: Cell cycle arrest in human MCF7 cells assessed as accumulation at G2/M phase at 1 uM after 48 hrs by propidium iodide staining based flow cytometry (reference value: 24.26%); type: functional
MCF7 [36] = assay: Cell cycle arrest in human MCF7 cells assessed as accumulation at S-phase at 0.5 uM after 48 hrs by propidium iodide staining based flow cytometry (reference value: 18.39%); type: functional
MCF7 [37] = assay: Cell cycle arrest in human MCF7 cells assessed as accumulation at G2/M phase at 1 uM after 24 hrs by propidium iodide staining based flow cytometry (reference value: 22.57%); type: functional

C[C@H]1[C@@H](Oc2ccc(-c3cc(-c4ccccc4)[nH]n3)cc2)O[C@@H]2O[C@@]3(C)CC[C@H]4[C@H](C)CC[C@@H]1[C@@]24OO3
concentration at 0.083 h [1]: 4460 ng/mL
Activity (NCI/ADR-RES [2]): 1.89%
clearance [3]: 57.7 mL/min/kg
Cmax [4]: 4460 ng/mL
Activity (NCI/ADR-RES [5]): 9.72%
concentration at 0.5 h [6]: 583 ng/mL
Activity (MCF7 [7]): 0.38%
Activity (MCF7 [8]): 11.95%
Activity (MCF7 [9]): 10.13%
Activity (NCI/ADR-RES [10]): 9.75%
GI50 (MCF7 [11]): 210 nM
Activity (MCF7 [12]): 72.58%
concentration at 24 h [13]: 2.65 ng/mL
Activity (MCF7 [14]): 16.94%
Activity (NCI/ADR-RES [15]): 46.94%
GI50 (MDA-MB-231): 240 nM
half-life [16]: 3.58 h
Activity (MCF7 [17]): 2.14%
Activity (NCI/ADR-RES [18]): inactive
Activity (NCI/ADR-RES [19]): 50.52%
concentration at 2 h [20]: 227 ng/mL
Activity (NCI/ADR-RES [21]): 4.73%
concentration at 0.25 h [22]: 1720 ng/mL
Vd [23]: 18 L/kg
Activity (NCI/ADR-RES [24]): 23.83%
Activity (NCI/ADR-RES [25]): 30.15%
Activity (MCF7 [26]): 85.04%
concentration at 4 h [27]: 147 ng/mL
GI50 (NCI/ADR-RES [28]): 18 nM
Activity (NCI/ADR-RES [29]): 21.64%
Activity (NCI/ADR-RES [30]): 61.78%
concentration at 8 h [31]: 34.1 ng/mL
Activity (MCF7 [32]): 83.54%
Activity (NCI/ADR-RES [33]): 20.41%
RatioGI50 [34]: 11.7
Activity (MCF7 [35]): 11.53%
Activity (MCF7 [36]): 3.87%
Activity (MCF7 [37]): 16.98%
